Laboratory results as given in PMC8391236, “Effect of Pterostilbene, a Natural Derivative of Resveratrol, in the Treatment of Colorectal Cancer through Top1/Tdp1-Mediated DNA Repair Pathway” (Cancers, 2021).

Tests used:
[1] = target: T1, Top1 (Homo sapiens, UniProt P11387); assay: Direct Top1 enzyme activity (DNA relaxation) assay; type: biochemical; details: gel electrophoresis
T1 construct: purchased TopoGEN, Buena Vista, CO, USA
T1 sequence (P11387 1-765): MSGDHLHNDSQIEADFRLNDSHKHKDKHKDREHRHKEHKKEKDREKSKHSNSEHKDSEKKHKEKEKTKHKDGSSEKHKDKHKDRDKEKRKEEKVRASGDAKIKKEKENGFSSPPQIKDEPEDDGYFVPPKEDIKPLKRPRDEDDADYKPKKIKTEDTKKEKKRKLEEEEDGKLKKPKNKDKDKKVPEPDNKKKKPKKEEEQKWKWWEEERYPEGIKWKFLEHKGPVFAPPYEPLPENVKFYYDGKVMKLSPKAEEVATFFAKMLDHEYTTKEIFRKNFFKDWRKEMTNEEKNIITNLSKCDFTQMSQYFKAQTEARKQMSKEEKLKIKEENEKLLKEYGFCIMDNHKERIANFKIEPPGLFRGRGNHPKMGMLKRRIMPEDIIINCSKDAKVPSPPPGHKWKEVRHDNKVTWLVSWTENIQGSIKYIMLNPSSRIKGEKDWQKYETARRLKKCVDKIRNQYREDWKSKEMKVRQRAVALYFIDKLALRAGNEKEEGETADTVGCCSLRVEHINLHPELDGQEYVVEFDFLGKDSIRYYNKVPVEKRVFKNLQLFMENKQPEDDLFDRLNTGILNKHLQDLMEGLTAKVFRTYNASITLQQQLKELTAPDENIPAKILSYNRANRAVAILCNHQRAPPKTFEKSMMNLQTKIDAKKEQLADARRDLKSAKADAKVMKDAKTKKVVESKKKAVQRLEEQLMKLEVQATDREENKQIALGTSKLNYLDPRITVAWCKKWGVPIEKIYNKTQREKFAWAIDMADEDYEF
Experimental: Different concentrations of the drug solution were prepared. The solvent was used as negative control group, and CPT (50 μM) was used as the positive control group. Each sample included 2 units of Top1 (TopoGEN, Buena Vista, CO, USA) and 250 ng super helical DNA (pHOT-1, TopoGEN, Buena Vista, CO, USA). The samples were incubated for 30 min at 37 °C, and then the reaction was stopped with SDS. After digestion with proteinase K (50 μg/mL, 60 min at 37 °C), samples were separated through electrophoresis (1% agarose gel). The electrophoresis was conducted at 180 V constant pressure for 20 min. The gel was immersed in the dye without EB for 30 min, and the images were collected by gel imaging system (Tanon-1600B, Shanghai, China).

[2] = system: subcutaneous CL187 xenograft; assay: Subcutaneous CL187 xenograft model; type: in vivo, BABLc/nude mice
Experimental: CL187 cell suspension was collected at 1 × 10^6 /mL, and 0.1 mL cell was inoculated into the right inguinal region of nude mice. The tumor was no metastasis. The diameter of the transplanted tumor in nude mice was measured with a vernier caliper. After 16-day inoculation (the tumor grew to 90 mm^3), the animals were randomly divided into 7 groups (6 mice per group). The drug was administered by intraperitoneal injection. Blank control group was injected with saline. […] According to the preliminary test results. […] Positive control group was injected with irinotecan (20 mg/kg) twice a week, During the experiment, the changes of body weight of nude mice were recorded, and the anti-tumor effect of the samples was dynamically investigated by measuring tumor diameter. On Day 31 post treatment, the nude mice were sacrificed, and the tumor blocks were removed surgically, weighed, and recorded.

[3] = system: P53; assay: Western blot for P53; type: cell-based, Human; details: CL187 cells, 12 h
Experimental: CL187 cells were treated with RE or PTE for 6 or 12 h, collected, and placed into lysis buffer (KeyGEN BioTECH, Nanjing, China). The total protein content in the cell lysates was measured using a BCA kit. Equivalent amount of total protein (30 μg) was loaded onto 10% SDS-PAGE gel. Electrophoresis was performed at 80 V for 25 min. After the sample went through concentrated gel, the voltage was adjusted to 120 V. Electrophoresis was stopped when the bromophenol blue band approached the bottom of the gel. After being transferred to PVDF membranes, the samples were incubated separately with 3 types of primary antibodies Top1, Tdp1, and P53 rabbit mAb (CST, Boston, MA, USA), followed by the incubation with secondary antibody goat anti-rabbit IgG (HRP)-conjugated (1:3000). ECL kit (New Cell and Molecular Biotech, Suzhou, China) was used for color development, and the images were collected by the gel imaging system (Tanon-5200, Shanghai, China).

[4] = system: Top1 and Tdp1; assay: Top1 and Tdp1 in xenograft tumor tissues (WB, qPCR); type: in vivo, BABLc/nude mice; details: subcutaneous CL187 xenograft
Experimental: The 20 mg of the tumor was added into 1 mL RIPA lysis, and homogenized for 3 times under low temperature condition, and centrifuged at 12,000 rpm for 10 min. Subsequently, the supernatant was collected, and the contents of Top1 and Tdp1 were determined by WB as described in Section 2.4.4. The 20 mg of tumor was added into 1 mL Trizol, and homogenized for 3 times. The expression levels of Top1 and Tdp1 were analyzed using the method described in Section 2.4.5.

[5] = 25 mg/kg i.p. once a day, Day 31
[6] = 50 mg/kg i.p. once a day, Day 31
[7] = 100 mg/kg i.p. once a day, Day 31
[8] = 200 mg/kg i.p. once a day, Day 31

In the case of `COc1cc(/C=C/c2ccc(O)cc2)cc(OC)c1` [PTE, 3,5-dimethoxy-4′-hydroxy-trans-stilbene], the “inhibition of Top1 enzyme activity (SC DNA relaxation)” value ([1]; 30 min incubation, CPT at 50 uM) is reported as “had the ability to inhibit Top1 enzyme activity in a dose-dependent manner”, the “concentration exhibiting the same inhibitory effect on Top1 enzyme activity” value ([1]; relaxation of supercoiled pHOT-1 DNA, 30 min) is reported as 20 µM and the “Relative Tumor Proliferation Rate (T/C, %)” value [2, 5] is reported as 53.53%. The “Tumor Inhibitory Rate (TGI, %)” value [2, 5] was 54.24 ± 4.80%, the “Tumor Volume” value [2, 5] was 1.725 ± 0.203 ** cm^3 and the “Tumor Weight” value [2, 5] was 1.60 ± 0.17 g. The TGI ([2]; 25 mg/kg, 31 days) was 54.24 ± 4.80%, the “Relative Tumor Proliferation Rate (T/C, %)” value [2, 6] was 39.56% and the “Tumor Volume” value [2, 6] was 1.243 ± 0.189 *** cm^3. For the same compound, the “Tumor Weight” value [2, 6] was 1.39 ± 0.19 g, the “Relative Tumor Proliferation Rate (T/C, %)” value [2, 7] was 24.20% and the “Tumor Volume” value [2, 7] was 0.779 ± 0.168 *** cm^3. The “Tumor Weight” value [2, 7] was 0.96 ± 0.11 g, the “Relative Tumor Proliferation Rate (T/C, %)” value [2, 8] was 20.71% and the “Tumor Volume” value [2, 8] was 0.623 ± 0.158 *** cm^3. For the same compound, the “Tumor Weight” value [2, 8] was 0.73 ± 0.09 g, the “adverse reactions during the entire treatment process” value ([2]; subcutaneous CL187 xenograft nude mice, CPT-11 20 mg/kg, PTE 25-200 mg/kg i.p.) was “did not have the above-mentioned adverse reactions” and the “expression of P53 (WB)” value [3] was “promoted the expression of P53”. The “mRNA expression of Top1 and Tdp1 in tumor tissues” value [4] was “inhibited” and the “protein contents of Top1 and Tdp1 in tumor tissues (WB)” value ([4]; especially high-concentration group) was “decreased significantly”.
